PMC8338929, “Acetylation turns leucine into a drug by membrane transporter switching” (Scientific Reports, 2021)

Legend:
Human OAT3 (SLC22A8) = target: T1, Human OAT3 (SLC22A8) (Homo sapiens, UniProt Q8TCC7); assay: Inhibition of OAT3 uptake of probe substrate estrone-3-sulfate in HEK-293 cells; type: cell-based; conditions: probe estrone-3-sulfate 2 µM; positive control diclofenac 100 µM
T1 construct: host or cells: HEK-293
T1 sequence (Q8TCC7 1-542): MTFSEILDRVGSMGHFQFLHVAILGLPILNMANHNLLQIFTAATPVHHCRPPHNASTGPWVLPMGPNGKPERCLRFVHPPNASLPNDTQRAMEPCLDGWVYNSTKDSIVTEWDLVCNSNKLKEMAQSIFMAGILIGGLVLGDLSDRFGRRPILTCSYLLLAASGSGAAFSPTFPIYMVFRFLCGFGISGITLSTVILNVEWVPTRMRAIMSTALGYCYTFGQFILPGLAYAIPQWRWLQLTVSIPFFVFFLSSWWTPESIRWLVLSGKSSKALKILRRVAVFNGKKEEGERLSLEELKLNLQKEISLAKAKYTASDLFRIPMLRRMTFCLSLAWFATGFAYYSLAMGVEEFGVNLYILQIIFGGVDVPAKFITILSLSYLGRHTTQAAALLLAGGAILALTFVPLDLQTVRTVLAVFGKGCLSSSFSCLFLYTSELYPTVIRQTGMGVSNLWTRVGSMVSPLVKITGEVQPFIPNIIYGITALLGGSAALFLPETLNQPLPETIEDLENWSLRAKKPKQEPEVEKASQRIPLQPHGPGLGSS
Protocol: (§1) Cells were grown in DMEM (Gibco 4196, high glucose, without sodium pyruvate) supplemented with MEM non-essential amino acids and 10% fetal bovine serum. Cells were re-fed with fresh medium after attachment (4–6 h post-seeding). Cell were plated at a density of 4 × 10^5/well in 24-well plates coated with poly-D-lysine. Transporter assays were conducted in 400 µL of HBSS supplemented with 10 mM Hepes, pH 7.4
The known probe substrates used as positive controls were 3 μM chlorothiazide for OAT1, 2 μM estrone-3-sulfate for OAT3, 10 µM [^3H]gabapentin for LAT1, 50 µM [^3H]Gly-Sar for PepT1, 500 µM thiophene-2-glyoxylic acid for MCT1. The known inhibitors used as controls for each transporter were 100 μM diclofenac for OAT1 and OAT3, 10 µM JPH203 for LAT1 and 200 µM losartan for PepT1. All incubations were in triplicate and contained 1% (OAT1 and OAT3) or 0.5% DMSO (LAT, PepT1 and MCT1). […]
[I] is the inhibitor concentration and IC50 is the inhibitor concentration where the remaining activity is at the midpoint between the Top and Bottom. […] In inhibition experiments, the IC50 is not equivalent to affinity because it is dependent on the concentrations of the substrate, the inhibitor and affinity; therefore, we assumed competitive inhibition, and calculated affinity of inhibition (Ki) with the Cheng-Prusoff equation[49].

Human OAT1 (SLC22A6) = target: T2, Human OAT1 (SLC22A6) (Homo sapiens, UniProt Q4U2R8); assay: OAT1-mediated cellular uptake in overexpressing HEK-293 cells; type: cell-based
T2 construct: host or cells: HEK-293
T2 sequence (Q4U2R8 1-563): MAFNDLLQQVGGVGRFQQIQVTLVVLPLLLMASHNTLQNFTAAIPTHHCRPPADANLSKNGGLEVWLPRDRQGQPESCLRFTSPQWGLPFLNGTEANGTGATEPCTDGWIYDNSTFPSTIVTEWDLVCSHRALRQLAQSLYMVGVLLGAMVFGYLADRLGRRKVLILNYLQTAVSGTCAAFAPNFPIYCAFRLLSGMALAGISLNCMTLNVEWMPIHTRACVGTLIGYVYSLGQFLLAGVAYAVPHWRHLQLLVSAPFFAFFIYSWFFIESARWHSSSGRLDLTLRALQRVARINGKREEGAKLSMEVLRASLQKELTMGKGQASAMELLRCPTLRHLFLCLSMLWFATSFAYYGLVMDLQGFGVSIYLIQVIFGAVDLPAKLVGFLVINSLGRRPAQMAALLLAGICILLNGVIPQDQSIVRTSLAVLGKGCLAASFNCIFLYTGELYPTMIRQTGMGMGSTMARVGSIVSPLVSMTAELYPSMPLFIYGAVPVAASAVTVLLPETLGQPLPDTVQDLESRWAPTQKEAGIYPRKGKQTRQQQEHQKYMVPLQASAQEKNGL
Protocol: as §1
The known probe substrates used as positive controls were 3 μM chlorothiazide for OAT1, 2 μM estrone-3-sulfate for OAT3, 10 µM [^3H]gabapentin for LAT1, 50 µM [^3H]Gly-Sar for PepT1, 500 µM thiophene-2-glyoxylic acid for MCT1. The known inhibitors used as controls for each transporter were 100 μM diclofenac for OAT1 and OAT3, 10 µM JPH203 for LAT1 and 200 µM losartan for PepT1. All incubations were in triplicate and contained 1% (OAT1 and OAT3) or 0.5% DMSO (LAT, PepT1 and MCT1). The duration of uptake was 5 min for OAT1 and OAT3, 3 min for LAT1 and PepT1 and 1 min for MCT1. Assays were performed at 37 °C with no shaking, except MCT1 at room temperature. To determine uptake due to the overexpressed transporter per se, uptake was taken as the difference between accumulation between transfected and nontransfected cells in parallel experiments at the same concentration and time. To terminate uptake the plate was placed on ice and cells washed twice with ice-cold transport buffer. […]

## CC(=O)N[C@@H](CC(C)C)C(=O)O [N-acetyl-L-leucine]
Human OAT3 (SLC22A8)
  IC50: 700 µM
Human OAT1 (SLC22A6); Michaelis-Menten fit
  Vmax OAT1 uptake: 173
Human OAT1 (SLC22A6); pH 7.4, 5 min
  substrate of OAT1 (uptake): substrate
